Measured values as given in PMC11444200, “In Vitro Evaluation of Antipseudomonal Activity and Safety Profile of Peptidomimetic Furin Inhibitors” (Biomedicines, 2024).

How the values were obtained:
[1] = target: T1, CYP3A4 (Homo sapiens, UniProt P08684); set-up: method as in PMID 35594709; settings: PHH, previous studies; cited from earlier work
[2] = system: primary human hepatocytes (PHH); set-up: method as in PMID 35594709; settings: PHHs; cited from earlier work
[3] = system: primary human hepatocytes (PHH); set-up: method as in PMID 35594709; settings: 100 µM; cited from earlier work
[4] = target: T2, Human serum albumin (HSA) (Homo sapiens, UniProt P02768); settings: same experimental model, earlier study; cited from earlier work
T2 construct: purchased Merck (Darmstadt, Germany) A1653

[5] = target: T2, Human serum albumin (HSA); assay: fluorescence quenching of human serum albumin; type: binding; settings: HSA 2 μM, ligand 1-10 μM, PBS pH 7.4, λex 295 nm
Method: Human serum albumin (HSA) (product code: A1653) and α1-acid glycoprotein (AGP) (product code: G9885) were purchased from Merck (Darmstadt, Germany) and used as received. Fluorescence emission spectra were recorded using a Hitachi F-4500 fluorometer (Tokyo, Japan), while absorption spectra were collected by employing a Hitachi U-3900 UV–Vis spectrophotometer (Tokyo, Japan). Before the evaluation of fluorescence data, the inner-filter effects of MI-1851 and MI-2415 were corrected based on the following equation [23, 24]:(1) Icor=Iobs×e^(Aex+Aem)/2 where Icor and Iobs are the corrected and observed emission intensities, respectively; and Aex and Aem are the absorbance of the MI compounds tested at the excitation and emission wavelengths used, respectively.
To examine the potential interaction of inhibitor MI-2415 with HSA, increasing levels of the ligand (final concentrations: 0, 1, 2, 3, 4, 7, and 10 μM) were added to a standard amount of the protein (2 μM) in PBS (pH 7.4), and then the emission spectra were recorded (λex = 295 nm, λem = 340 nm). Furthermore, the quenching effects of inhibitors MI-1851 and MI-2415 (both 0, 0.25, 0.5, 1, 1.5, 2, and 2.5 μM) were also tested on the emission signal of AGP (2 μM) in PBS (λex = 285 nm, λem = 337 nm).

[6] = system: primary human hepatocytes (PHH); assay: Amplex Red extracellular H2O2 assay in primary human hepatocytes; type: cell-based; settings: 50 µM and 100 µM, 24 h
Method: (§1) PHHs were purchased from Primacyt Cell Culture Technology GmbH (Schwerin, Germany). Hepatocytes were thawed using hepatocyte recovery medium (Primacyt, Schwerin, Germany) and cells were centrifuged (10 min, 100× g, 20 °C) to remove supernatants. Cells were incubated with 5% FBS-containing plating medium for 6 h, then with FBS-free maintenance medium at 37 °C with 5% CO2 (both media were obtained from Primacyt, Schwerin, Germany) on Matrigel-coated membrane inserts (Costar Transwell-COL PTFE permeable supports, 6.5 mm inserts, 0.4 µm pore size, 24-well plate, Corning Incorporated, Kennebunk, ME, USA) for the CCK-8 and Amplex Red procedures. Maintenance medium without FBS was replaced every 24 h and the cells were incubated.
To evaluate the cellular responses of IPEC-J2 to the inhibitors MI-1851 and MI-2415, and those of PHHs to MI-2415, at different concentration levels, the Amplex Red hydrogen peroxide assay kit (Invitrogen, Molecular Probes, Budapest, Hungary) in combination with horseradish peroxidase has been used. In the presence of hydrogen peroxide (in 1:1 stoichiometry), Amplex Red produces a red fluorescent oxidation product, resorufin. The IPEC-J2 cells and PHHs were treated for 24 h with the inhibitor(s) at different concentration levels (50 and 100 μM). […]

[7] = target: T1, CYP3A4; assay: cell-based P450-Glo CYP3A4 activity assay in PHHs; type: in vitro ADME; set-up: human hepatic microsomes (Gibco, Biocenter, Szeged, Hungary); tissue Gibco (Biocenter, Szeged, Hungary); host or cells: human liver microsomes; settings: 100 µM, 24 h
Method: To investigate the effects of inhibitor MI-2415 on CYP3A4 activities, a P450-Glo CYP450 assay (Promega, Madison, WI, USA) was used. […] This luminescent method involves adding a cell-permeable Luciferin-IPA at 3 µM, which was used in 300 µL phenol-red free Williams’ Medium E in each well in the CYP3A4 assay with an incubation time of 1 h. The luminescence activity of the product in the presence of the luciferin detection reagent was proportional to the CYP activity. For the microsomal CYP3A4 assay of inhibitors MI-1851 and MI-2415 at 25, 50, and 100 µM (n = 3), BioVision CYP assays (BioVision, Inc., Kampenhout, Belgium) were used according to the manufacturer’s instructions. The protein content of human hepatic microsomes (Gibco, Biocenter, Szeged, Hungary) was determined by the bicinchoninic acid protein assay kit (Pierce BCA kit, Thermo Fisher Scientific, Waltham, MA, USA) and a 100 µg/well protein was used in each study. […] A Victor X2 2030 fluorescence spectrometer (Perkin Elmer, Waltham, MA, USA) was used to detect the fluorescence intensities of the microsomal CYP3A4 function at wavelengths of λex/em = 535/587 nm and it was also applied to detect the luminescence signals of the cell-based CYP3A4 activity assay.

[8] = system: primary human hepatocytes (PHH); assay: DCFH-DA intracellular ROS assay in primary human hepatocytes; type: cell-based; settings: 50 µM and 100 µM, 24 h
Method: as §1
The ability of inhibitors MI-1851 and MI-2415 to induce oxidative stress (ROS) within IPEC-J2 as well as of compound MI-2415 within PHHs was investigated with 2,7-dichloro-dihydro-fluorescein diacetate (DCFH2-DA). DCFH2-DA is a non-fluorescent compound that can passively diffuse across cell membranes due to its lipophilic nature. […] A Victor X2 2030 (Perkin Elmer, Waltham, MA, USA) was used to determine the fluorescence values of the samples (excitation wavelength: 485 nm, emission wavelength: 535 nm), which are directly proportional to the ROS generation.

T1 sequence (P08684 whole entry): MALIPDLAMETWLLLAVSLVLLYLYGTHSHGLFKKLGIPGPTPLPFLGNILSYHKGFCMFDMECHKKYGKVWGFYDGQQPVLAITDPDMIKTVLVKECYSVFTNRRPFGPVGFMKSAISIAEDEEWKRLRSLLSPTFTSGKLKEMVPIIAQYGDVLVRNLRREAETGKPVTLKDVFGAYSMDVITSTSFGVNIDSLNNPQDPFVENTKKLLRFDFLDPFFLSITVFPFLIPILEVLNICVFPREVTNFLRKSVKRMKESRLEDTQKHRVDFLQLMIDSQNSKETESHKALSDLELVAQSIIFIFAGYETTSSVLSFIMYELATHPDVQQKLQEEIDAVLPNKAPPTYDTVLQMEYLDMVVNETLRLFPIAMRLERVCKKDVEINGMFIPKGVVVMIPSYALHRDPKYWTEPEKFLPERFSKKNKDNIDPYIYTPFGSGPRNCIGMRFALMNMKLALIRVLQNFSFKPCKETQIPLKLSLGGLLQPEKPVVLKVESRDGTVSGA
T2 sequence (P02768 25-609): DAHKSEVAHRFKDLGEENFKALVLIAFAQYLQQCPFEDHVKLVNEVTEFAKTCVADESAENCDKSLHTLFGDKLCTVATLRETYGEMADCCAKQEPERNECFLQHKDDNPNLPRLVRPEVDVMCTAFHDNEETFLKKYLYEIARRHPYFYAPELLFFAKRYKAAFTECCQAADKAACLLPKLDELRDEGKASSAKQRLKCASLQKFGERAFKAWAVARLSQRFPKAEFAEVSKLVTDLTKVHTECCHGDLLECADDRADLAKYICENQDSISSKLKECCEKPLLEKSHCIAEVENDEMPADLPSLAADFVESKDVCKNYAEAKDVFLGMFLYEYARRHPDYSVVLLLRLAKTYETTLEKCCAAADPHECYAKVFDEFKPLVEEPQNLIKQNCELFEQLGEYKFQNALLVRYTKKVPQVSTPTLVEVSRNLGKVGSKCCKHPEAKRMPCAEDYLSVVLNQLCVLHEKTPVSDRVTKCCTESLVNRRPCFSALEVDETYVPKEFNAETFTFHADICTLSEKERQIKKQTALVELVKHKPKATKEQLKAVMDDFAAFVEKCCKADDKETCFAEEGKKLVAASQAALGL

| Compound | concentration at which significant inhibition of CYP3A4 was already observed [1] [µM] | non-cytotoxic concentration [2] | extracellular hydrogen peroxide production in PHHs [3] | effect on emission signal of HSA [4] | effect on emission intensity of HSA at 340 nm [5] | extracellular H2O2 production in PHHs [6] | CYP3A4 activity in PHHs [7] | intracellular ROS formation in PHHs [8] |
| --- | --- | --- | --- | --- | --- | --- | --- | --- |
| CC(C)(C)[C@H](NC(=O)[C@H](CCONC(=N)N)NC(=O)Cc1ccc(CNC(=N)N)cc1)C(=O)N[C@@H](CCONC(=N)N)C(=O)NCc1ccc(C(=N)N)cc1 [MI-1851] | 20 | up to 100 µM | lacking any significant effect | did not affect the emission signal of HSA | – | – | – | – |
| CC(C)(C)[C@H](NC(=O)[C@H](CCONC(=N)N)NC(=O)Cc1ccc(CNC(=N)N)cc1)C(=O)N[C@@H](CCONC(=N)N)C(=O)NCc1ccc2c(c1)CN=C2N [MI-2415] | – | – | – | – | did not influence the emission intensity of HSA | did not cause a redox imbalance | significantly reduced | did not cause a redox imbalance |
